# Where two headings read alike, the source gives them in different places.
# Key:
# [1] = target: T1, PrbP/RpoB (two-hybrid, PrbP with RpoB 21-150) (Candidatus Liberibacter asiaticus, UniProt A0ABM5NE52); details: E. coli TOP10, 240 min, 37 °C, inhibition of PrbP/RpoB interaction, indirect reporter
# T1 construct: gene WSI_01420
# PrbP (CLIBASIA_01510) = target: T2, PrbP (CLIBASIA_01510) (Candidatus Liberibacter asiaticus, UniProt A0ABM5NE52); details: 2.5 µM PrbP, 1 ng biotin-labelled rplK promoter probe, 10 mM HEPES pH 7.5, 150 mM NaCl, 37 °C
# T2 construct: gene WSI_01420
structure (smiles),measurement,setting,value
CN(C)Cc1c[nH]c2ccccc12 [Gramine],β-galactosidase activity^d (% decrease),[1]; 40 µM compound,15.3 ± 0.3%
Cc1ncc([N+](=O)[O-])n1CCO [Metronidazole],β-galactosidase activity^d (% decrease),[1]; 50 µM compound,53.7 ± 10%
Cc1c(Cl)cccc1Nc1ccccc1C(=O)O [Tolfenamic acid],β-galactosidase activity^d (% decrease),[1]; 25 µM compound,17.5 ± 5.3%
same,complete disruption,PrbP (CLIBASIA_01510),350 µM

# Reference: article PMC5067538 (Frontiers in Microbiology, 2016)
